Values quoted from earlier work in patent publication US10342816B2, “Aqueous ophthalmic formulations based on azithromycin” (MEDIVIS S.R.L., priority 2013, dated 2019).

Legend:
[1] = pharmacopoeia
[2] = aqueous solution, phosphate buffer, low ionic strength

## CC[C@H]1OC(=O)[C@H](C)[C@@H](O[C@H]2CC(C)(OC)[C@@H](O)C(C)O2)[C@H](C)[C@@H](O[C@@H]2OC(C)CC(N(C)C)C2O)[C@](C)(O)C[C@@H](C)CN(C)[C@H](C)[C@@H](O)[C@]1(C)O (some centres unmarked) [azithromycin]
[1]
  solubility in water: poorly soluble in water
[2]
  pH at which the kinetics of the hydrolytic phenomenon has the minimum value: 6.3
